The structures appear in SMILES notation. Active and inactive are the calls of the source. The rule behind the calls is not given here.

Drawing on PubChem BioAssay AID1259407 (Chemical Carcinogenesis Research Information System (CCRIS), 2018), this text covers mutagenic call for four molecules.

The subject of this data set is CCRIS mutagenicity, Ames/micronucleus/aberration tests. Kind of data set: CCRIS mutagenicity studies.
The mark [1] stands for this setting: Test System: AMES SALMONELLA TYPHIMURIUM, Strain/Indicator: TA98, Metabolic Activation: HAMSTER, LIVER, S-9, AROCLOR 1254 (10%), Method: PREINCUBATION
[2] abbreviates: Test System: AMES SALMONELLA TYPHIMURIUM, Strain/Indicator: TA98, Metabolic Activation: NONE, Method: PREINCUBATION
Where [3] appears, read: Test System: AMES SALMONELLA TYPHIMURIUM, Strain/Indicator: TA98, Metabolic Activation: RAT, LIVER, S-9, AROCLOR 1254 (10%), Method: PREINCUBATION
[4] abbreviates: Test System: AMES SALMONELLA TYPHIMURIUM, Strain/Indicator: TA100, Metabolic Activation: HAMSTER, LIVER, S-9, AROCLOR 1254 (10%), Method: PREINCUBATION
[5] abbreviates: Test System: AMES SALMONELLA TYPHIMURIUM, Strain/Indicator: TA100, Metabolic Activation: NONE, Method: PREINCUBATION
Setting [6] is: Test System: AMES SALMONELLA TYPHIMURIUM, Strain/Indicator: TA100, Metabolic Activation: RAT, LIVER, S-9, AROCLOR 1254 (10%), Method: PREINCUBATION
[7] abbreviates: Test System: AMES SALMONELLA TYPHIMURIUM, Strain/Indicator: TA1535, Metabolic Activation: HAMSTER, LIVER, S-9, AROCLOR 1254 (10%), Method: PREINCUBATION
[8] abbreviates: Test System: AMES SALMONELLA TYPHIMURIUM, Strain/Indicator: TA1535, Metabolic Activation: NONE, Method: PREINCUBATION
[9] abbreviates: Test System: AMES SALMONELLA TYPHIMURIUM, Strain/Indicator: TA1535, Metabolic Activation: RAT, LIVER, S-9, AROCLOR 1254 (10%), Method: PREINCUBATION
[10] abbreviates: Test System: AMES SALMONELLA TYPHIMURIUM, Strain/Indicator: TA1537, Metabolic Activation: HAMSTER, LIVER, S-9, AROCLOR 1254 (10%), Method: PREINCUBATION
[11] abbreviates: Test System: AMES SALMONELLA TYPHIMURIUM, Strain/Indicator: TA1537, Metabolic Activation: NONE, Method: PREINCUBATION
Where [12] appears, read: Test System: AMES SALMONELLA TYPHIMURIUM, Strain/Indicator: TA1537, Metabolic Activation: RAT, LIVER, S-9, AROCLOR 1254 (10%), Method: PREINCUBATION

As for `CN(C)C(=S)N(C)C`, the mutagenic call is “inactive; negative” under setting [1]; “inactive; negative” under setting [2]; “inactive; negative” under setting [3]; “inactive; negative” under setting [4]; “inactive; negative” under setting [5]; “inactive; negative” under setting [6]. Besides, the mutagenic call was “inactive; negative” under setting [7]; “inactive; negative” under setting [8]; “inactive; negative” under setting [9]; “inactive; negative” under setting [10]; “inactive; negative” under setting [11]; “inactive; negative” under setting [12].

Consider `CCC(CC)[N+](=O)[O-]`, for which the mutagenic call runs as follows: under setting [5], “inactive; negative”; (Test System: AMES SALMONELLA TYPHIMURIUM, Strain/Indicator: TA100, Metabolic Activation: RAT, LIVER, S-9, AROCLOR, Method: PREINCUBATION) “inactive; negative”; (Test System: AMES SALMONELLA TYPHIMURIUM, Strain/Indicator: TA102, Metabolic Activation: NONE, Method: PREINCUBATION) “inactive; negative”; (Test System: AMES SALMONELLA TYPHIMURIUM, Strain/Indicator: TA102, Metabolic Activation: RAT, LIVER, S-9, AROCLOR, Method: PREINCUBATION) “inactive; negative”; (Test System: UDS RAT HEPATOCYTES, Strain/Indicator: THY INCORP, Metabolic Activation: NONE) “active; positive”.

With `CC(=O)N(O)c1ccc(O)cc1`, under “End Point: IN VITRO MICRONUCLEUS, Test System: RAT KIDNEY FIBROBLAST NRK-49F, Metabolic Activation: NONE”, the mutagenic call was “active; positive”.

Take `CC(O)CCl` (stereo not given): the mutagenic call is “inactive; negative” (Test System: AMES SALMONELLA TYPHIMURIUM, Strain/Indicator: TA97, Metabolic Activation: HAMSTER, LIVER, S-9, AROCLOR 1254 (10%), Method: PREINCUBATION); “inactive; negative” (Test System: AMES SALMONELLA TYPHIMURIUM, Strain/Indicator: TA97, Metabolic Activation: NONE, Method: PREINCUBATION); “inactive; negative” (Test System: AMES SALMONELLA TYPHIMURIUM, Strain/Indicator: TA97, Metabolic Activation: RAT, LIVER, S-9, AROCLOR 1254 (10%), Method: PREINCUBATION); “inactive; negative” (Test System: AMES SALMONELLA TYPHIMURIUM, Strain/Indicator: TA98, Metabolic Activation: HAMSTER LIVER S-9, AROCLOR 1254 (10%), Method: PREINCUBATION); “inactive; negative” under setting [1]; “inactive; negative” (Test System: AMES SALMONELLA TYPHIMURIUM, Strain/Indicator: TA98, Metabolic Activation: NONE, Method: FLUCTUATION (MICROTITER)). Moreover, the mutagenic call is “inactive; negative” under setting [2]; “inactive; negative” (Test System: AMES SALMONELLA TYPHIMURIUM, Strain/Indicator: TA98, Metabolic Activation: RAT LIVER S-9, AROCLOR 1254 (10%), Method: PREINCUBATION); “inactive; negative” (Test System: AMES SALMONELLA TYPHIMURIUM, Strain/Indicator: TA98, Metabolic Activation: RAT LIVER S-9, AROCLOR 1254, Method: FLUCTUATION (MICROTITER)); “inactive; negative” under setting [3]; “inactive; negative” under setting [4]; “inactive; negative” under setting [5]. Besides, the mutagenic call under setting [6] was “inactive; negative”; the mutagenic call (Test System: AMES SALMONELLA TYPHIMURIUM, Strain/Indicator: TA1535, Metabolic Activation: HAMSTER LIVER S-9, AROCLOR 1254 (10%), Method: PREINCUBATION) is “active; positive”; the mutagenic call under setting [7] was “active; positive”; the mutagenic call under setting [8] is “active; positive”; the mutagenic call (Test System: AMES SALMONELLA TYPHIMURIUM, Strain/Indicator: TA1535, Metabolic Activation: RAT LIVER S-9, AROCLOR 1254 (10%), Method: PREINCUBATION) was “active; positive”; the mutagenic call under setting [9] is “active; positive”. Besides, the mutagenic call (Test System: AMES SALMONELLA TYPHIMURIUM, Strain/Indicator: TA1537, Metabolic Activation: HAMSTER LIVER S-9, AROCLOR 1254 (10%), Method: PREINCUBATION) was “inactive; negative”; the mutagenic call under setting [10] is “inactive; negative”; the mutagenic call (Test System: AMES SALMONELLA TYPHIMURIUM, Strain/Indicator: TA1537, Metabolic Activation: NONE, Method: FLUCTUATION (MICROTITER)) is “inactive; negative”; the mutagenic call under setting [11] is “inactive; negative”; the mutagenic call (Test System: AMES SALMONELLA TYPHIMURIUM, Strain/Indicator: TA1537, Metabolic Activation: RAT LIVER S-9, AROCLOR 1254 (10%), Method: PREINCUBATION) was “inactive; negative”; the mutagenic call (Test System: AMES SALMONELLA TYPHIMURIUM, Strain/Indicator: TA1537, Metabolic Activation: RAT LIVER S-9, AROCLOR 1254, Method: FLUCTUATION (MICROTITER)) was “inactive; negative”. Moreover, the mutagenic call is “inactive; negative” under setting [12]; “inactive; negative” (Test System: AMES SALMONELLA TYPHIMURIUM, Strain/Indicator: TA7001, Metabolic Activation: NONE, Method: FLUCTUATION (MICROTITER)); “inactive; negative” (Test System: AMES SALMONELLA TYPHIMURIUM, Strain/Indicator: TA7001, Metabolic Activation: RAT LIVER S-9, AROCLOR 1254, Method: FLUCTUATION (MICROTITER)); “inactive; negative” (Test System: AMES SALMONELLA TYPHIMURIUM, Strain/Indicator: TA7002, Metabolic Activation: NONE, Method: FLUCTUATION (MICROTITER)); “inactive; negative” (Test System: AMES SALMONELLA TYPHIMURIUM, Strain/Indicator: TA7002, Metabolic Activation: RAT LIVER S-9, AROCLOR 1254, Method: FLUCTUATION (MICROTITER)); “inactive; negative” (Test System: AMES SALMONELLA TYPHIMURIUM, Strain/Indicator: TA7003, Metabolic Activation: NONE, Method: FLUCTUATION (MICROTITER)). The mutagenic call (Test System: AMES SALMONELLA TYPHIMURIUM, Strain/Indicator: TA7003, Metabolic Activation: RAT LIVER S-9, AROCLOR 1254, Method: FLUCTUATION (MICROTITER)) is “inactive; negative”; the mutagenic call (Test System: AMES SALMONELLA TYPHIMURIUM, Strain/Indicator: TA7004, Metabolic Activation: NONE, Method: FLUCTUATION (MICROTITER)) is “inactive; negative”; the mutagenic call (Test System: AMES SALMONELLA TYPHIMURIUM, Strain/Indicator: TA7004, Metabolic Activation: RAT LIVER S-9, AROCLOR 1254, Method: FLUCTUATION (MICROTITER)) is “inactive; negative”; the mutagenic call (Test System: AMES SALMONELLA TYPHIMURIUM, Strain/Indicator: TA7005, Metabolic Activation: NONE, Method: FLUCTUATION (MICROTITER)) was “inactive; negative”; the mutagenic call (Test System: AMES SALMONELLA TYPHIMURIUM, Strain/Indicator: TA7005, Metabolic Activation: RAT LIVER S-9, AROCLOR 1254, Method: FLUCTUATION (MICROTITER)) is “inactive; negative”; the mutagenic call (Test System: AMES SALMONELLA TYPHIMURIUM, Strain/Indicator: TA7006, Metabolic Activation: NONE, Method: FLUCTUATION (MICROTITER)) is “inactive; negative”. Further, the mutagenic call (Test System: AMES SALMONELLA TYPHIMURIUM, Strain/Indicator: TA7006, Metabolic Activation: RAT LIVER S-9, AROCLOR 1254, Method: FLUCTUATION (MICROTITER)) is “inactive; negative”.
